This passage reports MIC and MFC results from paper PMC6222847, “Application of HPCCC Combined with Polymeric Resins and HPLC for the Separation of Cyclic Lipopeptides Muscotoxins A–C and Their Antimicrobial Activity” (Molecules : A Journal of Synthetic Chemistry and Natural …, 2018).

Common to all, as to format: cell-based
One assay has as its system Bacillus subtilis. Briefly: Broth two-fold microdilution. Conditions: B. subtilis CCM1999; Mueller Hinton broth, 300–0.0732 µg/mL (control 32–0.0625), 37 °C 16 h, triplicate; MIC = least concentration showing any inhibition in the growth. How it is done:
Furthermore, compound 1 was evaluated for its antimicrobial activity against five bacterial isolates; S. aureus (CCM3824), B. subtilis (CCM1999), S. sanguinis (CCM4047), P. aeruginosa (CCM1959), E. coli (CCM2024), and eight fungal isolates; C. friedrichii (BCC020_2879), A. fumigatus (BCC020_2845), F. oxysporum (BCC020_2866), T. harzianum (BCC020_0606), B. sorokiniana (BCC020_1571), M. cucumerina (BCC020_2872), C. globosum (BCC020_2527), and A. alternata (BCC020_0609) using broth two-fold microdilution method following the standard protocol. Briefly, for broth microdilution method, the compounds were serially diluted at varying concentrations between 300 and 0.0732 µg/mL in Mueller Hinton broth (for bacteria) and Muller Hinton broth with 2% glucose (for fungi) in 96-well plates. Culture broth (0.1 mL) was added to each well containing the compound. […] MIC95 was determined as the concentration required to inhibit or kill 95% of bacterial isolates spectroscopically at 600 nm. Minimum fungicidal concentration (MFCs) were determined after 48 h incubation by removing 10 µL of the contents from wells showing no visible growth and spreading them on to Sabouraud dextrose agar plates. The plates were then incubated for 72 h and MFCs were determined as the concentrations which killed 95–100% of the inoculum. […]
In general terms: Broth dilution looks for growth in wells or tubes with falling amounts of substance.

The next assay deals with Alternaria alternata. Nature of the assay: microbe, parasite or virus in culture. How it is done: (§1) Furthermore, compound 1 was evaluated for its antimicrobial activity against five bacterial isolates; S. aureus (CCM3824), B. subtilis (CCM1999), S. sanguinis (CCM4047), P. aeruginosa (CCM1959), E. coli (CCM2024), and eight fungal isolates; C. friedrichii (BCC020_2879), A. fumigatus (BCC020_2845), F. oxysporum (BCC020_2866), T. harzianum (BCC020_0606), B. sorokiniana (BCC020_1571), M. cucumerina (BCC020_2872), C. globosum (BCC020_2527), and A. alternata (BCC020_0609) using broth two-fold microdilution method following the standard protocol. Briefly, for broth microdilution method, the compounds were serially diluted at varying concentrations between 300 and 0.0732 µg/mL in Mueller Hinton broth (for bacteria) and Muller Hinton broth with 2% glucose (for fungi) in 96-well plates. Culture broth (0.1 mL) was added to each well containing the compound. Plates were incubated aerobically at 37 °C for 16 h (bacteria) and 30 °C for 48 h (for fungi). Negative controls were prepared separately with respective organisms in the same culture media with methanol (the dissolving solvent). Positive controls were also prepared separately with respective organisms. Erythromycin (32–0.0625 µg/mL) was used as positive control for S. aureus and S. sanguinis, gentamycin (32–0.0625 µg/mL) was used as positive control for Bacillus subtilis, E. coli, and P. aeruginosa, whereas fluconazole (32–0.0625 µg/mL) was used as positive control for all the fungal isolates. After incubation, the well with the least concentration of the compound showing any inhibition in the growth was taken as the MIC value for the respective organisms. MIC95 was determined as the concentration required to inhibit or kill 95% of bacterial isolates spectroscopically at 600 nm. Minimum fungicidal concentration (MFCs) were determined after 48 h incubation by removing 10 µL of the contents from wells showing no visible growth and spreading them on to Sabouraud dextrose agar plates. The plates were then incubated for 72 h and MFCs were determined as the concentrations which killed 95–100% of the inoculum. All the experiments were done in triplicate.

A further assay relates to Aspergillus fumigatus. Nature of the assay: microbe, parasite or virus in culture. The procedure: as §1
The next assay has as its system Candida friedrichii. Briefly: microbe, parasite or virus in culture. How it is done:
as §1

For a further assay, the system named is Chaetomium globosum. Briefly: microbe, parasite or virus in culture. The procedure: as §1
For the next assay, the system named is Fusarium oxysporum. Briefly: microbe, parasite or virus in culture. The procedure:
as §1

For a further assay, the system named is Monographella cucumerina. Nature of the assay: microbe, parasite or virus in culture. The procedure:
as §1

For the next assay, the system named is Trichoderma harzianum. Nature of the assay: microbe, parasite or virus in culture. How it is done:
as §1

Converted amounts (≈) assume the structure as drawn. *1 amine or outer side, *2 acyl side, *3 side chain or, on linkers, in order; H or OH if unused. Where a SMILES comes first, the peptide text is derived from it. [ ]: non-standard residue; d: D form. X1 = CCCCCC(O)CC(N[*:1])C(O)C(=O)[*:2]; d(aIle) = CC[C@H](C)[C@@H](N)C(=O)O; Dhb = C/C=C(\N)C(=O)O

On to `C/C=C1\NC(=O)[C@H](CO)NC(=O)[C@@H]([C@@H](C)CC)NC(=O)[C@H](Cc2ccccc2)NC(=O)[C@@H]2CCCN2C(=O)CNC(=O)[C@@H](CCC(N)=O)NC(=O)C(O)C(CC(O)CCCCC)NC(=O)[C@@H]2CCCN2C(=O)[C@@H]([C@@H](C)CC)NC(=O)[C@H](CO)NC1=O` (stereo partly drawn) [compound 2, muscotoxin A] (cyclo([Dhb]S[d(aIle)]P[X1][dQ]GPF[d(aIle)]S)), for which the MIC worked out at 37.5 µg/mL (≈ 31 µM) against Bacillus subtilis; 0.58 µg/mL (≈ 0.479 µM) against Alternaria alternata (A. alternata BCC020_0609, Muller Hinton broth with 2% glucose, 300–0.0732 µg/mL (control 32–0.0625), 30 °C 48 h, triplicate, least concentration showing any inhibition); 2.34 µg/mL (≈ 1.93 µM) in the assay with Aspergillus fumigatus (A. fumigatus BCC020_2845, Muller Hinton broth with 2% glucose, 300–0.0732 µg/mL (control 32–0.0625), 30 °C 48 h, triplicate, least concentration showing any inhibition); 75 µg/mL (≈ 61.9 µM) with Candida friedrichii (C. friedrichii BCC020_2879, Muller Hinton broth with 2% glucose, 300–0.0732 µg/mL (control 32–0.0625), 30 °C 48 h, triplicate, least concentration showing any inhibition); 18.75 µg/mL (≈ 15.5 µM) in the assay on Chaetomium globosum (C. globosum BCC020_2527, Muller Hinton broth with 2% glucose, 300–0.0732 µg/mL (control 32–0.0625), 30 °C 48 h, triplicate, least concentration showing any inhibition); 75 µg/mL (≈ 61.9 µM) against Fusarium oxysporum (F. oxysporum BCC020_2866, Muller Hinton broth with 2% glucose, 300–0.0732 µg/mL (control 32–0.0625), 30 °C 48 h, triplicate, least concentration showing any inhibition). Besides, the MIC against Monographella cucumerina (M. cucumerina BCC020_2872, Muller Hinton broth with 2% glucose, 300–0.0732 µg/mL (control 32–0.0625), 30 °C 48 h, triplicate, least concentration showing any inhibition) worked out at 2.34 µg/mL (≈ 1.93 µM); in the assay with Trichoderma harzianum (T. harzianum BCC020_0606, Muller Hinton broth with 2% glucose, 300–0.0732 µg/mL (control 32–0.0625), 30 °C 48 h, triplicate, least concentration showing any inhibition), 37.5 µg/mL (≈ 31 µM). Also, the MFC in the assay on Alternaria alternata (A. alternata, 10 µL from wells without visible growth after 48 h spread on Sabouraud dextrose agar, 72 h, kills 95–100% of the inoculum) is given as 75 µg/mL (≈ 61.9 µM); in the assay with Aspergillus fumigatus (A. fumigatus, 10 µL from wells without visible growth after 48 h spread on Sabouraud dextrose agar, 72 h, kills 95–100% of the inoculum), 37.5 µg/mL (≈ 31 µM); in the assay on Candida friedrichii (C. friedrichii, 10 µL from wells without visible growth after 48 h spread on Sabouraud dextrose agar, 72 h, kills 95–100% of the inoculum), below 300 µg/mL; in the assay on Chaetomium globosum (C. globosum, 10 µL from wells without visible growth after 48 h spread on Sabouraud dextrose agar, 72 h, kills 95–100% of the inoculum) it was below 300 µg/mL; in the assay with Fusarium oxysporum (F. oxysporum, 10 µL from wells without visible growth after 48 h spread on Sabouraud dextrose agar, 72 h, kills 95–100% of the inoculum), below 300 µg/mL; in the assay with Monographella cucumerina (M. cucumerina, 10 µL from wells without visible growth after 48 h spread on Sabouraud dextrose agar, 72 h, kills 95–100% of the inoculum) it was 75 µg/mL (≈ 61.9 µM). For the same molecule, the MFC with Trichoderma harzianum (T. harzianum, 10 µL from wells without visible growth after 48 h spread on Sabouraud dextrose agar, 72 h, kills 95–100% of the inoculum) came out at 300 µg/mL (≈ 248 µM).
